One assay concerns A2780 cells. The experiment in a line: Proliferation assay, Cell Titre-Glo viability (Method 3). In kind it is cell-based, human. The conditions noted are these: Homo sapiens, A2780, 72 h, A2780, 72-hour exposure; read-out: Inhibition of A2780 cell proliferation IC50. On the procedure: (§1) A2780 human ovarian carcinoma cells (ECACC #93112519) and non-adherent MOLM-13 human acute myeloid leukemia cells (DSMZ ACC 554) were seeded at a density of 3,000 cell/well (A2780) or 5,000 cells/well (MOLM-13) in a 96-well multititer plate in 150 μL of growth medium supplemented 10% fetal calf serum. After 24 hours, cell viability of one plate (zero-point plate) was determined with the Cell Titre-Glo Luminescent Cell Viability Assay (Promega), while the medium of the other plates was supplemented with the test substances in various concentrations (0 μM, as well as in the range of 0.0001-10 μM; the final concentration of the solvent dimethyl sulfoxide was adjusted to 0.1%) using a Hewlett-Packard HP D300 Digital Dispenser. Cell viability was assessed after 72-hour exposure with the Cell
(§2) Titre-Glo Luminescent Cell Viability Assay (Promega). IC50 values (inhibitory concentration at 50% of maximal effect) were determined by means of a 4 parameter fit on measurement data which were normalized to vehicle (DMSO) treated cells (=100%) and measurement readings taken immediately before compound exposure (=0%).

The subject of another assay is MOLM-13 cells. The assay is described as above. Format: cell-based. The conditions noted are these: Homo sapiens; MOLM-13, 72-hour exposure; read-out: Inhibition of MOLM-13 cell proliferation IC50. On the procedure: as §1, §2
For the next assay, the system named is HeLa-MaTu-ADR cells. The experiment in a line: Proliferation assay, crystal violet (Method 3). Format: cell-based. Conditions: Homo sapiens, 96 h, 4 days, read-out: Inhibition of HeLa-MaTu-ADR cell proliferation IC50. On the procedure: (§3) Cultivated tumour cells (HeLa, human cervical tumour cells, ATCC CCL-2; NCI-H460, human non-small cell lung carcinoma cells, ATCC HTB-177; DU 145, hormone-independent human prostate carcinoma cells, ATCC HTB-81; HeLa-MaTu-ADR, multidrug-resistant human cervical carcinoma cells, EPO-GmbH Berlin; Caco-2, human colorectal carcinoma cells, ATCC HTB-37; B16F10, mouse melanoma cells, ATCC CRL-6475) were plated at a density of 5,000 cells/well (DU145, HeLa-MaTu-ADR), 3,000 cells/well (NCI-H460, HeLa), 1,500 cells/well (Caco-2), or 1,000 cells/well (B16F10) in a 96-well multititer plate in 200 μL of their respective growth medium supplemented 10% fetal calf serum. After 24 hours, the cells of one plate (zero-point plate) were stained with crystal violet (see below), while the medium of the other plates was supplemented with the test substances in various concentrations (0 μM, as well as in the range of 0.0001-10 μM; the final concentration of the solvent dimethyl sulfoxide was adjusted to 0.1%) using a Hewlett-Packard HP D300 Digital Dispenser. The cells were incubated for 4 days in the presence of test substances. Cell proliferation was determined by staining the cells with crystal violet: the cells were fixed by adding 20 μl/measuring point of an 11% glutaric aldehyde solution for 15 minutes at room temperature. After three washing cycles of the fixed cells with water, the plates were dried at room temperature. The cells were stained by adding 100 μl/measuring point of a 0.1% crystal violet solution (pH 3.0). After three washing cycles of the stained cells with water, the plates were dried at room temperature. The dye was dissolved by adding 100 μl/measuring point of a 10% acetic acid solution. The extinction was determined by photometry at a wavelength of 595 nm. The change of cell number, in percent, was calculated by normalization of the measured values to the extinction values of the zero-point plate (=0%) and the extinction of the untreated (0 μm) cells (=100%). The IC50 values (inhibitory concentration at 50% of maximal effect) were determined by means of a 4 parameter fit.

In a further assay the test system is DU145 cells. The experiment in a line: Proliferation assay, crystal violet (Method 3). In kind it is cell-based. Conditions: Homo sapiens, DU-145, 96 h; DU145, 4 days; read-out: Inhibition of DU145 cell proliferation IC50. How it is done:
as §3

In a further assay the test system is B16F10 cells. As to the kind of experiment: Proliferation assay, crystal violet (Method 3). Format: cell-based. The conditions noted are these: Mus musculus, B16-F10, 96 h; B16F10, 4 days; read-out: Inhibition of B16F10 cell proliferation IC50. How it is done: as §3
In another assay the test system is Caco-2 cells. The experiment in a line: Proliferation assay, crystal violet (Method 3). Format: cell-based. The conditions noted are these: Homo sapiens, 96 h; Caco-2, 4 days; read-out: Inhibition of Caco-2 cell proliferation IC50. How it is done:
as §3

For a further assay, the system named is NCI-H460 cells. The experiment in a line: Proliferation assay, crystal violet (Method 3). Format: cell-based. The conditions noted are these: Homo sapiens, 96 h; NCI-H460, 4 days; read-out: Inhibition of NCI-H460 cell proliferation IC50. How it is done: as §3
In a further assay the test system is HeLa cells. The experiment in a line: Proliferation assay, crystal violet (Method 3). In kind it is cell-based, human. The conditions noted are these: Homo sapiens, 96 h, 4 days, read-out: Inhibition of HeLa cell proliferation IC50. How it is done:
as §3

From US10214542B2, “Modified macrocyclic compounds” (BAYER PHARMA AKTIENGESELLSCHAFT, priority 2015, dated 2019) come the findings set out here.

`CS(=N)(=O)Cc1cc2nc(c1)Nc1cc(c(F)cn1)-c1ccc(F)cc1OCCCCN2` (racemic) [Example 3, (rac)-16,20-Difluoro-9-[(S-methylsulfonimidoyl)methyl]-3,4,5,6-tetrahydro-2H,12H-11,7-(azeno)-13,17-(metheno)-1,6,12,14-benzoxatriazacyclononadecine]: the IC50 worked out at 5.5 nM in the assay on A2780 cells and 3.4 nM with MOLM-13 cells.
In the case of `CS(=N)(=O)Cc1cc2cc(c1)OCCCNc1cc(F)ccc1-c1nc(ncc1F)N2` (racemic) [Example 14, rac-15,19-difluoro-8-[(S-methylsulfonimidoyl)methyl]-1,2,3,4-tetrahydro-16,12-(azeno)-6,10-(metheno)-5,1,11,13-benzoxatriazacyclooctadecine], the IC50 in the assay with A2780 cells stood at 4.7 nM; in the assay on MOLM-13 cells it was 3.1 nM.
With `CSCc1cc2nc(c1)OCCCCc1cc(F)ccc1-c1cc(ncc1F)N2` [Example 4, 2,18-Difluoro-9-[(methylsulfanyl)methyl]-13,14,15,16-tetrahydro-6H-7,11-(azeno)-5,1-(metheno)-12,4,6-benzoxadiazacyclooctadecine], the IC50 in the assay on MOLM-13 cells was 970 nM; in the assay on HeLa-MaTu-ADR cells, 5570 nM; in the assay with DU145 cells, above 10000 nM; with B16F10 cells, above 10000 nM; in the assay on Caco-2 cells, 2550 nM; in the assay with NCI-H460 cells, 4770 nM. Also, the IC50 with HeLa cells is 9280 nM.
For `CSCc1cc2nc(c1)OCCCCCc1cc(F)ccc1-c1cc(ncc1F)N2` [Example 18, 2,19-difluoro-9-[(methylsulfanyl)methyl]-14,15,16,17-tetrahydro-6H,13H-7,11-(azeno)-5,1-(metheno)-12,4,6-benzoxadiazacyclononadecine], the IC50 with A2780 cells was above 100 nM; in the assay with HeLa-MaTu-ADR cells it was above 10000 nM; with DU145 cells it was above 10000 nM; in the assay on B16F10 cells, above 10000 nM; in the assay with Caco-2 cells, 4640 nM; in the assay on NCI-H460 cells, above 10000 nM. Moreover, the IC50 in the assay on HeLa cells was above 10000 nM.
As to `CC(C)(C)OC(=O)N=S(C)(=O)Cc1cc2cc(c1)OCCCNc1cc(F)ccc1-c1nc(ncc1F)N2` (racemic) [Example 13, (rac)-tert-butyl[{[15,19-difluoro-1,2,3,4-tetrahydro-16,12-(azeno)-6,10-(metheno)-5,1,11,13-benzoxatriazacyclooctadecin-8(11H)-yl]methyl}(methyl)oxido-λ^6-sulfanylidene]carbamate], the IC50 in the assay with A2780 cells was 19 nM; with MOLM-13 cells it was 14 nM; in the assay on HeLa-MaTu-ADR cells it was 94 nM; with DU145 cells it was 55 nM; in the assay on Caco-2 cells, 68 nM; in the assay with NCI-H460 cells, 79 nM. In addition, the IC50 in the assay on HeLa cells is 78 nM.
As for `C[S+]([O-])Cc1cc2nc(c1)OCCCCc1cc(F)ccc1-c1cc(ncc1F)N2` (racemic) [Example 5, (rac)-2,18-Difluoro-9-[(methylsulfinyl)methyl]-13,14,15,16-tetrahydro-6H-7,11-(azeno)-5,1-(metheno)-12,4,6-benzoxadiazacyclooctadecine], the IC50 in the assay on A2780 cells is 270 nM; in the assay on MOLM-13 cells it was 24 nM; in the assay with HeLa-MaTu-ADR cells, 830 nM; in the assay on DU145 cells, 836 nM; with Caco-2 cells, 761 nM; with NCI-H460 cells, 1070 nM. Moreover, in the assay with HeLa cells, the IC50 was 955 nM.
With `CN1CCCCOc2cc(F)ccc2-c2nc(ncc2F)Nc2cc(CS(C)(=N)=O)cc1c2` (racemic) [Example 23, (rac)-16,20-difluoro-6-methyl-9-[(S-methylsulfonimidoyl)methyl]-3,4,5,6-tetrahydro-2H,12H-13,17-(azeno)-11,7-(metheno)-1,6,12,14-benzoxatriazacyclononadecine], the IC50 with A2780 cells is 13 nM; in the assay with MOLM-13 cells it was 9.8 nM.
